Laboratory results reported in patent US4657913A, “Trifluoro- quinoline -3-carboxylic acids and their use as anti-bacterial agents” (Warner-Lambert Company, priority 1985, dated 1987).
Values after ≈ are worked out from the molar mass of the structure shown.

Experiments:
Assay in all cases: microtitration dilution method, in vitro antibacterial activity (MIC)
Assay type in all cases: cell-based
Proteus rettgeri M 1771 = conditions: Providencia rettgeri, M1771, read-out: Minimal Inhibitory Concentration MIC
Description: (§1) The compounds of the invention display antibacterial activity when tested by the microtitration dilution method as described in Heifetz, et al, Antimicr. Agents & Chemoth., 6, 124 (1974), which is incorporated herein by reference.
(§2) By use of the above referenced method, the following minimum inhibitory concentration values (MICs in μg/ml) were obtained for representative compounds of the invention.

[1] = test system: Streptococcus pneumoniae SV-1; conditions: SV1, read-out: Minimal Inhibitory Concentration MIC
Description: as §1, §2

[2] = test system: Streptococcus pyogenes C-203; conditions: C203, read-out: Minimal Inhibitory Concentration MIC
Description: as §1, §2

[3] = test system: Pseudomonas aeruginosa UI-18; conditions: UI18, read-out: Minimal Inhibitory Concentration MIC
Description: as §1, §2

[4] = test system: Staphlococcus aureus H 228; conditions: read-out: Minimal Inhibitory Concentration MIC
Description: as §1, §2

[5] = test system: Staphylococcus aureus UC-76; conditions: UC76, read-out: Minimal Inhibitory Concentration MIC
Description: as §1, §2

Escherichia coli Vogel = conditions: read-out: Minimal Inhibitory Concentration MIC
Description: as §1, §2

[6] = test system: Enterobacter cloacae MA 2646; conditions: MA2646, read-out: Minimal Inhibitory Concentration MIC
Description: as §1, §2

[7] = test system: Streptococcus faecalis MGH-2; conditions: Enterococcus faecalis, MGH2, read-out: Minimal Inhibitory Concentration MIC
Description: as §1, §2

[8] = test system: Klebsiella pneumoniae MGH-2; conditions: MGH2, read-out: Minimal Inhibitory Concentration MIC
Description: as §1, §2

Row | SMILES | MIC (Proteus rettgeri M 1771) | MIC [1] | MIC [2] | MIC [3] | MIC [4] | MIC [5] | MIC (Escherichia coli Vogel) | MIC [6] | MIC [7] | MIC [8]
1 | CCNCC1CCN(c2c(F)c(F)c3c(=O)c(C(=O)O)cn(C4CC4)c3c2F)C1 (centres unmarked) [Ex. 2A, 1-Cyclopropyl-7-[3-[(ethylamino)methyl]-1-pyrrolidinyl]-5,6,8-trifluoro-1,4-dihydro-4-oxo-3-quinolinecarboxylic acid] | 1.6 µg/mL (≈ 3.91 µM) | 0.2 µg/mL (≈ 0.489 µM) | 0.1 µg/mL (≈ 0.244 µM) | 3.1 µg/mL (≈ 7.57 µM) | 0.2 µg/mL (≈ 0.489 µM) | 0.025 µg/mL (≈ 0.0611 µM) | 0.2 µg/mL (≈ 0.489 µM) | 0.4 µg/mL (≈ 0.977 µM) | 0.2 µg/mL (≈ 0.489 µM) | 0.4 µg/mL (≈ 0.977 µM)
2 | CCn1cc(C(=O)O)c(=O)c2c(F)c(F)c(N3CCC(CNC)C3)c(F)c21 (centres unmarked) [Ex. 1C, 1-Ethyl-5,6,8-trifluoro-1,4-dihydro-7-[3-[(methylamino)methyl]-1-pyrrolidinyl]-4-oxo-3-quinolinecarboxylic acid] | 6.3 µg/mL (≈ 16.4 µM) | 0.4 µg/mL (≈ 1.04 µM) | 0.2 µg/mL (≈ 0.522 µM) | 3.1 µg/mL (≈ 8.09 µM) | 0.8 µg/mL (≈ 2.09 µM) | 0.05 µg/mL (≈ 0.13 µM) | 0.4 µg/mL (≈ 1.04 µM) | 1.6 µg/mL (≈ 4.17 µM) | 0.8 µg/mL (≈ 2.09 µM) | 0.8 µg/mL (≈ 2.09 µM)
3 | CCNCC1CCN(c2c(F)c(F)c3c(=O)c(C(=O)O)cn(CC)c3c2F)C1 (centres unmarked) [Ex. 1D, 1-Ethyl-7-[3-[(ethylamino)methyl]-1-pyrrolidinyl]-5,6,8-trifluoro-1,4-dihydro-4-oxo-3-quinolinecarboxylic acid] | 0.8 µg/mL (≈ 2.01 µM) | 0.2 µg/mL (≈ 0.503 µM) | 0.2 µg/mL (≈ 0.503 µM) | 6.3 µg/mL (≈ 15.9 µM) | 0.4 µg/mL (≈ 1.01 µM) | 0.013 µg/mL (≈ 0.0327 µM) | 0.4 µg/mL (≈ 1.01 µM) | 0.4 µg/mL (≈ 1.01 µM) | 0.2 µg/mL (≈ 0.503 µM) | 0.8 µg/mL (≈ 2.01 µM)
4 | CCn1cc(C(=O)O)c(=O)c2c(F)c(F)c(N3CCC4(CCN(C)C4)C3)c(F)c21 (centres unmarked) [Ex. 1B, 1-Ethyl-5,6,8-trifluoro-1,4-dihydro-7-(7-methyl-2,7-diazaspiro[4.4]nonan-2-yl)-4-oxo-3-quinolinecarboxylic acid] | 6.3 µg/mL (≈ 15.4 µM) | 0.8 µg/mL (≈ 1.95 µM) | 1.6 µg/mL (≈ 3.91 µM) | 6.3 µg/mL (≈ 15.4 µM) | 0.8 µg/mL (≈ 1.95 µM) | 0.2 µg/mL (≈ 0.489 µM) | 0.8 µg/mL (≈ 1.95 µM) | 0.8 µg/mL (≈ 1.95 µM) | 1.6 µg/mL (≈ 3.91 µM) | 1.6 µg/mL (≈ 3.91 µM)
5 | CCn1cc(C(=O)O)c(=O)c2c(F)c(F)c(N3CCC(CN)C3)c(F)c21 (centres unmarked) [Ex. 1A, 7-[3-(Aminomethyl)-1-pyrrolidinyl]-1-ethyl-5,6,8-trifluoro-1,4-dihydro-4-oxo-3-quinolinecarboxylic acid] | 3.1 µg/mL (≈ 8.39 µM) | ≤ 0.1 µg/mL | ≤ 0.1 µg/mL | 3.1 µg/mL (≈ 8.39 µM) | 1.6 µg/mL (≈ 4.33 µM) | 0.8 µg/mL (≈ 2.17 µM) | 0.8 µg/mL (≈ 2.17 µM) | 0.8 µg/mL (≈ 2.17 µM) | 0.8 µg/mL (≈ 2.17 µM) | 0.8 µg/mL (≈ 2.17 µM)
